Results from patent EP1964555A1, “PHARMACEUTICAL CO[…] INHIBIT THE REUPTAKE OF NORADRENALINE, DOPAMINE AND SEROTONIN, WHICH ARE COMBINED WITH AN AMINO ACID FOR THE TREATMENT OF OBESITY AND OVERWEIGHT” (Espinosa Abdala, Leopoldo de Jesús, priority 2005, dated 2007).

Key:
[1] = tested on: human plasmatic proteins; conditions: plasma; cited from earlier work
[2] = cited from earlier work; for plasma rates: after administration of indicated Sibutramine therapeutic doses; for time for plasma concentrations to reach the stable state: during treatment; for detection in urine: in vivo; for maximum plasma concentration [Tmax]: time after administration; for effect of food on Tmax / effect of food on maximum concentrations: with food
[3] = Example 2: randomized, double-blind, crossover study in patients with severe obesity and dyslipidemia; assay type: in vivo; conditions: 4 weeks per treatment
Protocol: A randomized, double-blind and crossover study was made in order to assess the reliability and effectiveness of the combination Sibutramine-Carnitine in patients with obesity and/or overweight suffering from dyslipidemia. 80 individuals were included in the study with a BMI higher than 35 kg/m^2 diagnosed with severe obesity, with alteration in the profile of lipids which total cholesterol figures was higher than 200 mg/dl.
Combined Sibutramine-carnitine was administered for 4 weeks and subsequently sibutramine alone and carnitine alone for another 4 weeks.

[4] = single dose, within a 15-day period

CNC(CC(C)C)C1(c2ccc(Cl)cc2)CCC1 (stereo not shown) [M1, mono-desmetilsibutramina]
attachment to human plasmatic proteins [1]: 94%
plasma rates [2]: 6%
time for plasma concentrations to reach the stable state [2]: four
detection in urine [2]: not detected
maximum plasma concentration [Tmax] [2]: ~3 h
effect of food on Tmax [2]: delay
effect of food on maximum concentrations [2]: decreases

CC(C)CC(N)C1(c2ccc(Cl)cc2)CCC1 (stereo not shown) [M2, di-desmetil-sibutramina]
attachment to human plasmatic proteins [1]: 94%
plasma rates [2]: 12%
time for plasma concentrations to reach the stable state [2]: four
detection in urine [2]: not detected
maximum plasma concentration [Tmax] [2]: ~4 h
effect of food on Tmax [2]: delay
effect of food on maximum concentrations [2]: decreases

CC(C)CC(N(C)C)C1(c2ccc(Cl)cc2)CCC1 (stereo not shown) [Sibutramine]
attachment to human plasmatic proteins [1]: 97%
plasma rates [2]: 3%
detection in urine [2]: not detected
share expelled through urine [2, 4]: 77%
share of dose expelled through urine and feces [2, 4]: About 85%
maximum plasma concentration [Tmax] [2]: 1.2 h
cholesterol and triglycerides levels ([3]; compared to the admission visit): frank progressive reduction

C[N+](C)(C)CC(O)CC(=O)[O-] (stereo not shown) [carnitine, Carnitine]
reduction of BMI ([3]; BMI higher than 35 kg/m^2, total cholesterol higher than 200 mg/dl, combination compared to sibutramine alone): no significant differences
